Measurements reported in patent US12058996B2, “High subzero cryopreservation” (The General Hospital Corporation, priority 2017, dated 2024).

Assays:
[1] = tested on: Human Umbilical Vein Endothelial Cells (HUVEC); test: Cryostage freeze-thaw of endothelial cell-coated microchannels (cell attachment, membrane integrity); format: cell-based; settings: with Snomax
Method: Prior to coating with endothelial cells, microchannels were sonicated briefly (3 min in isopropanol; Branson 200, Branson Ultrasonics), and then rinsed with PBS. Channels were then coated with 1 mg/mL fibronectin (dissolved in sterile PBS, total of 10 μl) and incubated for 60 min at 37° C. After a priming step, HUVEC cells were trypsinized, counted, and re-suspended in EBM-2 complete media (˜10.0×10^6 cells per mL). Cells were subsequently introduced to the cell seeding port and incubated at 37° C. 5% CO2 for 30 min (FIG. 1A). Final constriction diameters of cellularized microchannels varied from ˜10 to 20 μm across the lengths of individual channels due to the presence of cellular nuclei along channel walls. Coated microchannels were then fed under continuous gravity flow using a pipet tip containing media and inserted into the delivery port to generate flow in the reverse direction from loading (FIG. 1A). Pipet tips (200 μl) filled with media provided an initial hydrostatic head of 2.5 cm H2O. Cells incubated at 37° C. 5% CO2 up to 3 days with daily replacement of tips with filled media before proceeding to experimentation. […] Control, unfrozen microchannels were stained with Calcein green (1:1000), Hoescht (H3570; 1:1000 v:v), and propidium iodide (4 μg/mL) for 20 min and imaged, while microchannels imaged prior to experimentation/freezing were only stained with Calcein green (1:1000). These experimental microchannels were subsequently stained after experimentation/freezing with Hoescht (H3570; 1:1000 v:v), and propidium iodide (4 μg/mL).
Endothelial cell-coated microchannels were prepared, and placed on the silver block of a FDCS196 cryostage (Linkam Scientific Instruments Ltd, London, UK), the temperature of which was controlled by the TMS 94 temperature controller with the accuracy of ±0.1° C. Microchannels bonded to glass slides were cut into individual devices so they would fit on the silver block of the Linkam cryostage. A PixeLINK PL-A662 camera (PixeLINK, Ottawa, Canada) was used to visualize ice formation and propagation. In all cases, ice nucleation temperature was recorded and ice propagation throughout the device was confirmed by direct visual inspection (FIG. 7). Prior to freezing, endothelial cell-coated microchannels in the 3-O-methyl-D-glucopyranose (3-OMG) experimental group were incubated with EBM-2 complete media supplemented with either 50 or 100 mM 3-OMG at 37° C. to promote intracellular transport of the glucose analog. Supplementation of 3-OMG in the basal media and incubation at 37° is an effective method for intracellular delivery of 3-OMG. […] Snomax (Snomax International, Englewood, CO, USA) was used as the model ice nucleator in this study (1 mg/mL). Microchannels were perfused with PBS containing ice nucleators and/or cryoprotectant agents for 10 min prior to beginning the cooling profile. During the freezing experiment, the temperature was first cooled at 10° C./min to 4° C. After thermal stabilization, a cooling rate of 1° C./min was applied until reaching the holding temperature. […] For microchannels which contained Snomax, ice was observed <−6° C. in all cases, and channels were cooled to −6, −10, or −20° C. At the lowest holding temperature, microchannels were held for 3-5 min before a rapid rewarming at +30° C./min (FIG. 1C). After rewarming, microchannels were stained with Hoescht (nuclear) and propidium iodide (membrane integrity) dissolved in EBM-2 complete media for 20 min and imaged, in which the cell membrane integrity was used as a discriminator of live and dead cells.
Cell attachment values were quantified by counting the total number of Hoechst positive cells (i.e. total number of cell nuclei) and dividing by the total number of channels (each device has maximum of 16 channels). Membrane integrity was quantified by counting the number of propidium iodide positive cells divided by the total number of Hoechst positive cells. […]

[2] = tested on: Human Umbilical Vein Endothelial Cells (HUVEC); test: Endothelial cell attachment with CPAs without freezing (FIG. 9); format: cell-based; settings: 100 mM 3-OMG, p=0.6995
Method: Prior to coating with endothelial cells, microchannels were sonicated briefly (3 min in isopropanol; Branson 200, Branson Ultrasonics), and then rinsed with PBS. Channels were then coated with 1 mg/mL fibronectin (dissolved in sterile PBS, total of 10 μl) and incubated for 60 min at 37° C. After a priming step, HUVEC cells were trypsinized, counted, and re-suspended in EBM-2 complete media (˜10.0×10^6 cells per mL). Cells were subsequently introduced to the cell seeding port and incubated at 37° C. 5% CO2 for 30 min (FIG. 1A). Final constriction diameters of cellularized microchannels varied from ˜10 to 20 μm across the lengths of individual channels due to the presence of cellular nuclei along channel walls. […]
Cell attachment values were quantified by counting the total number of Hoechst positive cells (i.e. total number of cell nuclei) and dividing by the total number of channels (each device has maximum of 16 channels). Membrane integrity was quantified by counting the number of propidium iodide positive cells divided by the total number of Hoechst positive cells. Cell attachment and membrane integrity are expressed as box-and-whiskers plots showing median, interquartile range, maxima, and minima (n=4-8). […]

[3] = tested on: livers (parenchyma and endothelial cells)
Excerpt: In the experiments, endothelial damage occurred as a result of the loading process of high viscosity solutions. This liver was not frozen and was only subjected to the loading protocol with 10% glycerol as the main cryoprotectant.
A stepwise loading protocol was preformed to address this issue. The liver was sampled for histology and endothelial analysis immediately after CPA loading. Thus, all livers presented were not frozen/stored and had the independent damage of the loading protocol only. Furthermore, the loading protocol was redesigned with special consideration for the impact of dramatic changes in osmolality between distinct phases of CPA loading. Thus, a step-wise loading protocol was finalized.
The stepwise loading protocol was tested in the following way: (1) “Loading 1” refers to the 3-OMG loading phase which is essential for intracellular delivery of this CPA. 3-OMG is loaded using the subnormothermic cocktail containing a William's E media base supplemented with heparin, hydrocortisone, insulin, etc.
First, livers were continuously perfused with either 50 or 100 mM 3-OMG at subnormothermic temperatures for 60 minutes (“Loading 1”) and were immediately sampled for histology.
After the experiment was stopped, livers were sampled for histology.

[4] = pH change of storage solution on freezing (phenol red); format: physicochemical; settings: phenol red in storage solution
Excerpt: The pH can change dramatically as a function of freezing and holding temperature. Depending on the components of the storage solution, the biologic sample can be exposed to an acidic or a basic environment. These changes can be determined by adding phenol red to the storage solution. […] This pH change is relevant and can affect the preservation media. To counter these fluctuations in pH, the goal is to introduce “counter ions” which can balance the pH change.

CO[C@H]1[C@H](O)[C@@H](CO)OC(O)[C@@H]1O (stereo partly drawn) [3-OMG, 3-O-methyl-D-glucopyranose]
cell attachment ([1]; 50 mM 3-OMG, Thold −6° C.): 33.2±9.1 cells/lane
percent PI positive cells (membrane integrity) ([1]; 50 mM 3-OMG, Thold −6° C.): 7.4±3.7%
cell attachment ([1]; 50 mM 3-OMG, Thold −10° C.): 15.1±8.2 cells/lane
percent PI positive cells (membrane integrity) ([1]; 50 mM 3-OMG, Thold −10° C.): 38.1±7.5%
cell attachment ([1]; 100 mM 3-OMG, Thold −6° C.): 31.4±6.6 cells/lane
percent PI positive cells (membrane integrity) ([1]; 100 mM 3-OMG, Thold −6° C.): 7.3±2.8%
cell attachment ([1]; 100 mM 3-OMG, Thold −10° C.): 33.6±8.8 cells/lane
percent PI positive cells (membrane integrity) ([1]; 100 mM 3-OMG, Thold −10° C.): 20.5±12.4%
cell attachment versus unfrozen controls without CPAs [2]: no statistical significant difference

OCC(O)CO [glycerol]
cell death after loading that was not stepwise (FIG. 15A) [3]: majority of cell death evident in endothelial cells

O=C([O-])O.[Na+] [sodium bicarbonate]
pH change of solution as the result of freezing [4]: became basic
